For data set [1], the system named is telomeric G-quadruplex DNA AGGG(TTAGGG)3. The data set can be described thus: UV-Vis absorption titration, Scatchard plot and molar ratio method. It counts as binding, human. The settings on record: Scatchard plot of UV-Vis titration, Tris-KCl buffer pH 7.4. As for the experimental part: Telomeric G-quadruplex DNA was prepared by heating gently 2.0 ml of stock single stranded 5′-[…]-3′ DNA (SEQ ID NO: 1) up to 95.0° C. Resultant solution was incubated at 95.0° C. for 10 min. The solution was left to cool gently down to room temperature, then kept in fridge at 4.0° C. overnight before use. A 10^−5 M fluorescein labeled G-quadruplex DNA was prepared similarly using 5′-Flu-telomeric DNA.
Successive amounts of G-quadruplex DNA (AGGG(TTAGGG)3, 1.44×10^−4 M) were added to 1.00 ml of each BQ (5×10^−6 M) in Tris-KCl buffer, pH 7.4. Solution was shacked well after each addition, incubated for 3 min at room temperature and its absorbance was scanned in the range 200-600 nm. Titration was stopped when no change in absorbance was observed. The experiment was reversed by adding successive amounts of the each BQ (1×10^−3 M) to 1.0 ml of 4×10^−6 M G-quadruplex DNA.
The molar ratio method based on measuring UV-Vis absorption was used for determining stoichiometry of G-quadruplex DNA interactions with BQs. A 1.00 ml BQs (5×10^−6 M) was titrated with telomere G-quadruplex (1.44×10^−4 M) in Tris-KCl buffer, pH 7.4. […] A plot of absorbance versus molar ratio [BQs]/[DNA] was constructed. […]
where Af, A and Ab are the absorbance at zero addition, after each addition and at saturation, respectively. […]

Data set [2] concerns telomeric G-quadruplex DNA. Kind of data set: Melting temperature curves by CD, G-quadruplex-BQs complexes. It counts as binding, human. The settings on record: for Tm of G-quadruplex-BQ complex / ΔTm of G-quadruplex-BQ complex: CD, equimolar BQ, Tris-KCl buffer pH 7.4; for selectivity towards G-quadruplex over ct-DNA: from differences between ΔTm (G-quadruplex) and ΔTm (ct-DNA). As for the experimental part:
(§1) Melting temperature curves for telomere G-quadruplex, ct-DNA and their BQs' adducts were constructed using CD spectral measurements. A 1.0 ml telomeric G-quadruplex (3.93×10^−6 M) or ct-DNA (100.00 ppm) in Tris-KCl-buffer, pH 7.4 was heated in the range 25-95° C. applying 2.0-5.0° C. increments and using 5 min incubation time intervals. The CD spectra in the range 200-400 nm were recorded at each temperature using the scan parameters described in previous section. BQs complexes with G-quadruplex or ct-DNA were prepared by mixing equimolar amounts of G-quadruplex (1.44×10^−4 M) with BQs (1×10^−4 M) or ct-DNA (1000 ppm) with BQs (1×10^−4 M) solution in 1.0 ml KCl-buffer pH 7.4. Solutions were incubated for 30 min before scan. Collected CD spectra were smoothed and baseline corrected against blank solution. Intensities of CD peaks for G-quadruplex, ct-DNA and their BQs' complexes at 293 and 282 nm were recorded. Plots of CD intensities versus temperature were constructed.

The subject of another data set is ct-DNA (calf thymus DNA). Kind of data set: Melting temperature curves by CD, ct-DNA-BQs complexes. It counts as binding. The settings on record: Tris-KCl buffer pH 7.4. The method, then:
Calf thymus ds-DNA (1000 μg/ml; 8×10^−8 M) was prepared by dissolving 10.0 mg of DNA into 10.0 ml Tris-KCl buffer, pH 7.4, without sonication or stirring. To prevent shearing of the large genomic DNA, the solution was gently inverted overnight at 4.0° C. to completely solubilize the DNA. Solutions of DNA are stable for several months at 4.0° C. in Tris-KCl buffer pH 7-8.
as §1, with “scan.” for “scan. Collected CD spectra were smoothed and baseline corrected against blank solution. Intensities of CD peaks for G-quadruplex, ct-DNA and their BQs' complexes at 293 and 282 nm were recorded. Plots of CD intensities versus temperature were constructed.”
Collected CD spectra were smoothed and baseline corrected against blank solution. Intensities of CD peaks for G-quadruplex, ct-DNA and their BQs' complexes at 293 and 282 nm were recorded. Plots of CD intensities versus temperature were constructed.

Data set [3] has as its system prostate cancer cells (C42B). The data set can be described thus: MTT cell viability assay, C42B. The data set is classed as cell-based, human. The settings on record: for IC50: Homo sapiens, 72 hrs; for loss of cell viability: 72 hours, BQs 1.0-25.0 μM, relative to control (DMSO). As for the experimental part: (§2) Human cancer cell lines were purchased from Hyclone Laboratories, Utah, USA. Pancreatic cancer cells (L3.6pl and MiaPaCa-2) and breast cancer cells (MCF-7) were maintained in DMEM while lung cancer cells (H1299) and prostate cancer cells (C42B) were maintained in RPMI 1640 media. All media were supplemented with antibiotics (penicillin 50 U/ml; streptomycin 50 μg/ml) and 10% fetal bovine serum (FBS, Biowest, Nouaille, France).
(§3) BQs were tested for their antiprolifrative activity in vitro using MTT assay on human pancreatic cancer cells (L3.6pl and MiaPaCa-2), human lung cancer cells (H1299), human breast cancer cells (MCF-7) and human prostate cancer cells (C42B).
(§4) The cell viability test was conducted by seeding pancreatic (L3.6pl and MiaPaCa-2), lung (H1299), breast (MCF-7) and prostate (C42B) cancer cells into 96-well culture plates at a density of 3×10^3 cells per well. Cells were then exposed to increasing doses (0-25 μM) of BQs for 72 hrs and MTT assay was performed using thymoquinone as a positive control in all experiments. The results were plotted as means±SD of at least three separate experiments using six determinations per experiment. Data were presented as proportional viability (%) by comparing the treated group with the untreated cells whose viability is assumed to be 100%. IC50s of the BQs were estimated from the linear plots of concentrations versus cell viabilities.
A general note: Formazan colour is commonly taken as a measure of viable cells.

Data set [4] deals with pancreatic cancer cells (MiaPaCa-2). The data set can be described thus: MTT cell viability assay, MiaPaCa-2. The data set is classed as cell-based, human. The following applies: for IC50: Homo sapiens, MIA PaCa-2, MiaPaCa-2, 72 hrs. The method, then: as §2, §3, §4
In data set [5] the test system is lung cancer cells (H1299). The data set can be described thus: MTT cell viability assay, H1299. The data set is classed as cell-based, human. The settings on record: for inhibition in cell viability: H1299, 72 hours, BQs 1.0-25.0 μM, relative to control (DMSO). The method, then:
as §2, §3, §4

For data set [6], the system named is pancreatic cancer cells (L3.6pl). The data set can be described thus: MTT cell viability assay, L3.6pl. The data set is classed as cell-based, human. The method, then:
as §2, §3, §4

In data set [7] the test system is examined cancer cell lines. The data set can be described thus: MTT cell viability assay, cell line not given (panel). The following applies: Homo sapiens; cell line not specified. The data set is classed as cell-based. As for the experimental part:
as §2, §3, §4

The subject of data set [8] is breast cancer cells (MCF-7). The data set can be described thus: MTT cell viability assay, MCF-7. The data set is classed as cell-based, human. The settings on record: for loss of cell viability: MCF-7, 72 hours, BQs 1.0-25.0 μM, relative to control (DMSO). As for the experimental part: as §2, §3, §4

Usually melting point stands for the temperature of the solid-liquid transition. As a reminder, the IC50 is the concentration that inhibits the measured activity by half. The low end stands for greater potency, the high end for weaker potency. Take `O=C1C=C(Nc2cccc(C(F)(F)F)c2)C(=O)C=C1Nc1cccc(C(F)(F)F)c1` [BQ1, 2,5-bis-(3-trifluoromethylanilino)-1,4-benzoquinone]: the melting point lay in the range of 280 to 282.5 °C. Also, the “binding constant (K) towards G-quadruplex DNA” value in [1] was 728000 M⁻¹. Also, in data set [2], the “Tm of G-quadruplex-BQ complex” value was 75.5 °C and the “ΔTm of G-quadruplex-BQ complex” value was determined as 7.5 °C. Also, in the data set with ct-DNA (calf thymus DNA), the “Melting temperature shift (ΔTm) of ct-DNA on BQ binding” value worked out at 5.8 °C. Moreover, in [3], the IC50 is 43.2 µM.

As for `O=C1C=C(Nc2cc(F)c(F)c(F)c2)C(=O)C=C1Nc1cc(F)c(F)c(F)c1` [BQ2, 2,5-bis-(3,4,5-trifluoroanilino)-1,4-benzoquinone], the melting point is above 350 °C.

Take `COc1ccc(NC2=CC(=O)C(Nc3ccc(OC)cc3)=CC2=O)cc1` [BQ3, 2,5-bis-(4-methoxylanilino)-1,4-benzoquinone]: the melting point is 323 to 325 °C. This molecule also gave an IC50 in data set [4] of 7.68 µM. In addition, the “selectivity towards G-quadruplex over ct-DNA” value in data set [2] is recorded as “low selectivity”. Further, the “ΔTm, G-quadruplex versus ct-DNA” value in data set [2] (stabilized both G-quadruplex and ct-DNA) is around 0.2 °C. Further, the “Melting temperature shift (ΔTm) of ct-DNA on BQ binding” value in the data set with ct-DNA (calf thymus DNA) was determined as 3.8 °C.

Regarding `O=C1C=C(Nc2ccc(F)cc2)C(=O)C=C1Nc1ccc(F)cc1` [BQ4, 2,5-bis-(4-fluoroanilino)-1,4-benzoquinone], the melting point was above 350 °C. Also, the half-maximal inhibitory concentration (IC50) in data set [5] (Homo sapiens, NCI-H1299, H1299, 72 hrs) amounted to 7.48 µM. Moreover, in [2], the “Tm of G-quadruplex-BQ complex” value came to 68.1 °C and the “ΔTm of G-quadruplex-BQ complex” value was 0.1 °C.

Take `O=C1C=C(Nc2ccccc2)C(=O)C=C1Nc1ccccc1` [BQ5, 2,5-bis-anilino-1,4-benzoquinone]: the melting point is 342 to 345 °C. The “selectivity towards G-quadruplex over ct-DNA” value in data set [2] (listed as BQS) is listed as 3.5 folds. In [3], the “loss of cell viability” value came to 27.25% and the IC50 was determined as 42.1 µM.

`O=C1C=C(NCCN2CCOCC2)C(=O)C=C1NCCN1CCOCC1` [BQ7, 2,5-bis((2-morpholinoethyl)amino)-1,4-benzoquinone] returned a melting point of 184 to 188 °C. For the same molecule, the “inhibition in cell viability” value in data set [5] is 20.81%. For the same molecule, the “loss in cell viability” value in data set [4] (MiaPaCa-2, 72 hours, BQs 1.0-25.0 μM, relative to control (DMSO)) was 7.53%. Besides, the “loss of cell viability” value in data set [3] came to 1.29%.

On to `O=C1C=C(NC2CCCC2)C(=O)C=C1NC1CCCC1` [BQ8, 2,5-bis-(cyclopentylamino)-1,4-benzoquinone], for which the melting point fell in the range of 289 to 291 °C. Further, the “inhibition in cell viability” value in [6] (72 hours, BQs 1.0-25.0 μM, relative to control (DMSO)) is listed as 26.97%.

`O=C1C=C(NCCN2CCCC2)C(=O)C=C1NCCN1CCCC1` [BQ9, 2,5-bis((2-(pyrrolidin-1-yl)ethyl)amino)-1,4-benzoquinone] gave a melting point of 159 to 162 °C. For the same molecule, the IC50 in data set [7] is below 10 µM. Further, the “inhibition in cell viability” value in data set [5] came to 84.40%. Besides, the “loss of cell viability” value in [8] was 92.50%.

In the case of `O=C1C=C(NCc2ccc(C(F)(F)F)cc2)C(=O)C=C1NCc1ccc(C(F)(F)F)cc1` [BQ10, 2,5-bis-(4-trifluoromethylbenzylamino)-1,4-benzoquinone], the melting point was in the range of 271 to 274 °C. Also, the IC50 in data set [7] is below 10 µM. In [8] (Homo sapiens, MCF7, MCF-7, 72 hrs), this molecule gave a concentration for half-maximal inhibition (IC50) of 8.04 µM.

Molecule `O=C1C=C(NCc2ccc(F)cc2)C(=O)C=C1NCc1ccc(F)cc1` [BQ11, 2,5-bis-(4-fluorobenzylamino)-1,4-benzoquinone] returned a melting point of 248 to 250 °C. The molecule further registered an IC50 in [7] below 10 µM. Besides, the IC50 in data set [6] (Homo sapiens, 72 hrs) came to 9.67 µM. For the same molecule, inhibition in data set [4] was half-maximal at 6.18 µM (IC50). Also, the “Tm of G-quadruplex-BQ complex” value in data set [2] was “lowest”.

Consider `COc1ccc(CNC2=CC(=O)C(NCc3ccc(OC)c(OC)c3)=CC2=O)cc1OC` [BQ12, 2,5-bis-(3,4-dimethoxybenzylamino)-1,4-benzoquinone], for which the melting point is 256.5 to 258.5 °C. In addition, the “loss of cell viability” value in data set [8] is 24.16%.

`O=C1C=C(NCc2ccccc2)C(=O)C=C1NCc1ccccc1` [BQ13, 2,5-bis-(benzylamino)-1,4-benzoquinone] returned a melting point of 254.5 to 256 °C.

In the case of `O=C1C=C(NCc2cc(C(F)(F)F)cc(C(F)(F)F)c2)C(=O)C=C1NCc1cc(C(F)(F)F)cc(C(F)(F)F)c1` [BQ14, 2,5-bis-(3,5-ditrifluoromethylbenzylamino)-1,4-benzoquinone], the melting point was 237 to 239 °C.
